Data on 4 molecules can be found in patent publication US20130295173A1, “COMPOSITIONS OF STATINS AND OMEGA-3 FATTY ACIDS” (OMTHERA PHARMACEUTICALS, INC., priority 2012, published 2013).

Data set [1] can be described thus: Stability testing of statins dissolved in PUFA free acid solvent system. The class given is physicochemical. The conditions noted are these: 25° C., 60% RH; for Statin in Oil: PUFA free acid solvent system; for Statin in Oil, Percent: share of total statin. The procedure:
The compositions were then mixed until full dissolution was observed, using a magnetic stir bar and sonication for 30-60 second intervals, taking care to maintain a nitrogen headspace over the solution throughout processing. […] Vials were covered with foil to protect from light and stored at 25° C., 60% RH. One vial of each of the three compositions was retrieved at each timepoint for testing. Procedures as listed in the USP Monograph for Omega-3-Acid Ethyl Ester Capsules were followed for measuring quantities of acid value, peroxide value, and absorbance for fats and fixed oils.

A short description of data set [2]: Comparison of solubility of statins in PUFA free acid solvent system and Lovaza ethyl ester solvent system, HPLC assay of supernatant. As to the method:
For this study, ten vials were prepared such that 5 vials contained 2 mL of Lovaza oil and 5 vials contained 2 mL of PUFA free acid solvent system. About 20 mg of each statin were added to one Lovaza oil vial and to one PUFA free acid solvent system vial. Vials containing the samples were blanketed with nitrogen, then sealed. The vials were then sonicated for 1 hour or until contents appeared clear. After sonication, vials which remained clear received additional 20 mg aliquots of their respective statin and were again blanketed with nitrogen. […] The samples were centrifuged and the supernatant was assayed for the respective statin by HPLC.

Data set [3] is described as follows: Initial solubility of statins in PUFA free acid solvent system (batch #37225). The class given is physicochemical.
A short description of data set [4]: Solubility of statins in various pH buffers.

As for `CC(C)c1c(C(=O)Nc2ccccc2)c(-c2ccccc2)c(-c2ccc(F)cc2)n1CC[C@@H](O)C[C@@H](O)CC(=O)[O-].CC(C)c1c(C(=O)Nc2ccccc2)c(-c2ccccc2)c(-c2ccc(F)cc2)n1CC[C@@H](O)C[C@@H](O)CC(=O)[O-].[Ca+2]` [Atorvastatin Calcium, atorvastatin calcium], the “Statin in Oil” value turned out to be 8.738 mg/g in data set [1] (t = 0), 8.275 mg/g in data set [1] (t = 1 week) and 7.839 mg/g in data set [1] (t = 2 week). For the same molecule, the “Statin in Oil, Percent” value in data set [1] (t = 0), in data set [1] (t = 1 week) and in data set [1] (t = 2 week) was 100% in each case.

Regarding `O=C([O-])C[C@H](O)C[C@H](O)/C=C/c1c(C2CC2)nc2ccccc2c1-c1ccc(F)cc1.O=C([O-])C[C@H](O)C[C@H](O)/C=C/c1c(C2CC2)nc2ccccc2c1-c1ccc(F)cc1.[Ca+2]` [Pitavastatin Calcium, pitavastatin calcium], in data set [2], the “Solubility in Lovaza (ethyl ester) Solvent System” value (shortened to “Solubility in Lovaza”) is 0.615 mg/g and the “Solubility in PUFA Free Acid Solvent System” value amounted to 12.771 mg/g.

With `CC[C@H](C)C(=O)O[C@H]1C[C@H](O)C=C2C=C[C@H](C)[C@H](CC[C@@H](O)C[C@@H](O)CC(=O)O)[C@H]21` [Pravastatin Sodium, pravastatin sodium], in data set [2], the “Solubility in Lovaza” value is on record as 0.000 mg/g and the “Solubility in PUFA Free Acid Solvent System” value came to 42.357 mg/g. In addition, the “Appearance of vial after sonication” value in data set [2] (PUFA free acid solvent, 2 mL, after the addition of about 313 mg) is “still remained clear”.

`CC(C)c1nc(N(C)S(C)(=O)=O)nc(-c2ccc(F)cc2)c1/C=C/[C@@H](O)C[C@@H](O)CC(=O)[O-].CC(C)c1nc(N(C)S(C)(=O)=O)nc(-c2ccc(F)cc2)c1/C=C/[C@@H](O)C[C@@H](O)CC(=O)[O-].[Ca+2]` [Rosuvastatin Calcium, rosuvastatin calcium]: in data set [3], the “Initial solubility in PUFA free acid solvent system, Concentration” value came out at 12.70 mg/mL. The “Solubility in Lovaza” value in data set [2] worked out at 0.001 mg/g. The “Solubility in PUFA Free Acid Solvent System” value in data set [2] stood at 12.700 mg/g. Moreover, the “Statin in Oil” value is listed as 6.481 mg/g in data set [1] (t = 0), 6.416 mg/g in data set [1] (t = 1 week) and 6.505 mg/g in data set [1] (t = 2 week). Further, the “Statin in Oil, Percent” value in data set [1] (t = 0), in data set [1] (t = 1 week) and in data set [1] (t = 2 week) was 100% in each case. The Solubility in data set [4] (0.1N HCl (pH 1.2), T = 0) was determined as 0.223; in data set [4] (0.1N HCl (pH 1.2), T = 1 Week), 0.104; in data set [4] (0.1N NaOH, T = 0), 8.058; in data set [4] (0.1N NaOH, T = 1 Week), 0.018; in data set [4] (Water, T = 0 (after sitting overnight)) it was 7.08; in data set [4] (Water, T = 1 Week), 8.822. Also, the Solubility in data set [4] (pH 2.2 acid phthalate buffer, T = 0) is given as 0.773; in data set [4] (pH 2.2 acid phthalate buffer, T = 1 Week), 9.343; in data set [4] (pH 4.0 acid phthalate buffer, T = 0), 1.901; in data set [4] (pH 4.0 acid phthalate buffer, T = 1 Week) it was 0.002; in data set [4] (pH 5.0 neutralized phthalate buffer, T = 0), 4.188; in data set [4] (pH 5.0 neutralized phthalate buffer, T = 1 Week) it was 4.790. Also, the Solubility is recorded as 7.963 in data set [4] (pH 7.0 phosphate buffer, T = 0); 10.654 in data set [4] (pH 7.0 phosphate buffer, T = 1 Week); 4.571 in data set [4] (pH 9.0 alkaline borate buffer, T = 0); 4.712 in data set [4] (pH 9.0 alkaline borate buffer, T = 1 Week). In addition, the “pH of maximal solubility” value in data set [4] (aqueous pH buffers) was ~7.0. Further, the “Aqueous solubility (in words)” value in data set [4] (overall across aqueous solutions, rosuvastatin at time zero) was “significant aqueous solubility”.
